Assay results as given in patent publication US12441730B2, “PRMT5 inhibitors” (Merck Sharp & Dohme LLC, priority 2019, dated 2025).
Where two headings read alike, the source gives them in different places.

Experiments:
[1] = biological target: T1, Full-length (FL)-PRMT5-MEP50 enzyme complex (Homo sapiens, UniProt O14744); assay: PRMT5-MEP50 Enzyme Methylation Assay (Version A); type: biochemical
T1 construct: Full-length (FL)-PRMT5-MEP50 enzyme complex (recombinant proteins from baculovirus-transfected Sf21 cells: FL-PRMT5; MW=73837 kDa and FL-MEP50; MW=38614); made in house; host or cells: baculovirus-transfected Sf21 cells
T1 sequence (O14744 whole entry): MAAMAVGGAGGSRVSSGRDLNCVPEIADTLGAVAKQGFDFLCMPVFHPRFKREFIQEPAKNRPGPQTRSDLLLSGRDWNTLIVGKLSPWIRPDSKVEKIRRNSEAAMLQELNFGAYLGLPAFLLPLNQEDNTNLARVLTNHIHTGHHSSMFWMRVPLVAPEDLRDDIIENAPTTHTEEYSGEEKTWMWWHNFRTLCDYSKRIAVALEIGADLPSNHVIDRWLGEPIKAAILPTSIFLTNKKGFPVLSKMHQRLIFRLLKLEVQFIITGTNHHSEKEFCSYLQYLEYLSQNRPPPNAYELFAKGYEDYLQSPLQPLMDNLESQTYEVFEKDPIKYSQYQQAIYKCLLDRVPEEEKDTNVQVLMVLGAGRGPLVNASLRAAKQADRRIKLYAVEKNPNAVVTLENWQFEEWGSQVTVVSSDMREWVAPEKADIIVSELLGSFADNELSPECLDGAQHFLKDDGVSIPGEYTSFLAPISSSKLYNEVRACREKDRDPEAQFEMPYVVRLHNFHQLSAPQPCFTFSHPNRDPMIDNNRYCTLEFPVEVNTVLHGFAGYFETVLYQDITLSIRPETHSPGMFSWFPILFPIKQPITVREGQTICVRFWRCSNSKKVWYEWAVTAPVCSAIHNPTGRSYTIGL
T1 sequence (Q9BQA1 whole entry partner): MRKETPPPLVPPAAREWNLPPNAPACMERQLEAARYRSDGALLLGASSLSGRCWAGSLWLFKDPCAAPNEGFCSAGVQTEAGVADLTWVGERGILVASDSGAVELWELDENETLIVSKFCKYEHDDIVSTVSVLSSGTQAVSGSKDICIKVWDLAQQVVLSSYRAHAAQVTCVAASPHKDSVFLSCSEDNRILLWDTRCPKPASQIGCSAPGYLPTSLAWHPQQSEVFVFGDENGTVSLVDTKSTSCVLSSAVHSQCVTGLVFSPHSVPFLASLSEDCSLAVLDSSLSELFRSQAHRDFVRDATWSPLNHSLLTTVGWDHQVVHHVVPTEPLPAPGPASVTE
Description: PRMT5-MEP50 Enzyme Methylation Assay (Version A)
PRMT5-MEP50 biochemical assay is a direct measurement of the methylation activity of the enzyme complex on a short peptide substrate derived from the N-terminus of H4 histone. Methylation experiment was performed with recombinant PRMT5-MEP50 protein complex. The assessment of inhibitory effect of small molecules was measured by the effectiveness of the compounds to inhibit this reaction (EC50).
In this assay, the potency (EC50) of each compound was determined from a twenty-point (1:2 serial dilution; top compound concentration of 100000 nM) titration curve using the following outlined procedure. To each well of a white ProxiPlus 384 well-plate, 100 nL of compound (1% DMSO in final assay volume of 10 μL) was dispensed, followed by the addition of 8 μL of 1× assay buffer (50 mM Bicine pH 8.0, 1 mM DTT, 0.004% Tween20, 0.01% BSA) containing 1.25 nM of Full-length (FL)-PRMT5-MEP50 enzyme complex (recombinant proteins from baculovirus-transfected Sf21 cells: FL-PRMT5; MW=[…] and FL-MEP50; MW=38614) and 1 μL of 150 μM S-(5′-Adenosyl)-L-Methionine Chloride (SAM). A plate were sealed and placed in a 37° C. humidified chamber for a 60 minutes pre-incubation with compound. Subsequently, each reaction was initiated by the addition of 1 μL 1× assay buffer containing 750 nM biotinylated H4R3(Me1) peptide. The final reaction in each well of 10 μL consists of 1.0 nM PRMT5-MEP50, 75 nM biotinylated-peptide, and 15 μM SAM. Methylation reactions were allowed to proceed for 150 minutes in a sealed plate at 37° C. Reactions were immediately quenched by the addition of 1 μL of 5% formic acid. A plate was then frozen and shipped to SAMDI™ Tech Inc. to determine the percent conversion from H4R3(Me1) to H4R3(Me2). Dose-response curves were generated by plotting percent effect (% product conversion; Y-axis) vs. Log 10 compound concentrations (X-axis). EC50 values were determined by non-linear regression according to models for either sigmoidal (4 parameters) or biphasic (7 parameters) dose-response curves.

[2] = tested on: symmetric dimethylation of arginine (SDMA) of PRMT5 substrates in MCF-7 cells; assay: PRMT5 Cell Target Engagement (TE) Assay; type: cell-based; conditions: 3 days treatment, SDMA high content imaging
Description: PRMT5 Cell Target Engagement (TE) Assay
The PRMT5 TE assay is a biomarker assay for identifying compounds that inhibit symmetric dimethylation of arginine (SDMA) of PRMT5 substrates. The following substrates have been reported for PRMT5: histone H2A and H4 R3, Histone H3 R2, Histone H3 R8, spliceosome Sm proteins, ribosomal protein RPS10, p53, FEN1, nucleoplasmin, nucleolin, EGFR and EBNA. The assay focuses on detecting symmetrically dimethylated nuclear proteins using high content imaging technology. Detection of the expression of symmetrically dimethylated nuclear proteins is through a mixture of primary rabbit monoclonal antibodies to SDMA (CST 13222), which in turn recognized by an Alexafluor 488 dye-conjugated anti-rabbit IgG secondary antibody. The IN Cell Analyzer 2200 or Opera-Phenix measures nuclear Alexafluor 488 fluorescent dye intensity that is directly related to the level of expression of symmetrically dimethylated nuclear proteins at the single cell level. Nuclear AF488 dye intensities are compared to the mean value for DMSO treated cells (MIN) to report percent of inhibition for each compound-treated well.
In this assay, the cell potency (EC50) of each compound was determined from a ten point (1:3 serial dilution; top compound concentration of 10000 nM) titration curve using the following outlined procedure. Each well of a BD falcon collagen coated black/clear bottom 384-well plate was seeded with 4000 MCF-7 cells in 30 μl media and allowed to attach for 5 h. Media is ATCC-formulated Eagle's Minimum Essential Medium, Catalog No. 30-2003. To make the complete growth medium, the following components were added to the base medium: 0.01 mg/mL human recombinant insulin; fetal bovine serum to a final concentration of 10%. Additional 30 μl of media containing 2× compounds were added to each well. Cells were treated for 3 days in 37° C. CO2 incubator. On day 3, cells were fixed with Cytofix, permeabilized with 0.4% Triton-X-100/Cytofix, and washed with D-PBS without Ca/Mg. Cells were blocked with Licor Odessey blocking reagent for 1 h at room temperature, followed by incubation with anti-SDMA (1:1000) antibody at 4° C. overnight. 1° antibody was removed, followed by three washings with DPBS without Ca/Mg and 0.05% Tween20. Hoechst (5 μg/mL), Cell Mask deep stain (1:2000) and Alexa488-conjugated goat anti-rabbit IgG (2 μg/mL) was added for 1 h at room temperature. A final washing step (three washes) was performed before sealing plate for imaging on In Cell Analyzer 2200 or Opera-Phenix. Images from analyzer were uploaded to Columbus (at WP or BOS) for image analysis. IC50 values were determined by 4 parameters robust fit of percent fluorescence units vs. (Log10) compound concentrations.

[3] = second value of 7 parameter biphasic fit, read-out: Enzyme Methylation Assay Version A (EC50 2)
[4] = single EC50 = 4 parameter single site sigmoidal fit, EC50 1 = first value of 7 parameter biphasic fit, read-out: Enzyme Methylation Assay Version A (EC50 or EC50 1)

| Compound | EC50 [1, 3] [nM] | EC50 [1, 4] [nM] | EC50 [2] [nM] | EC50 ([2]; Homo sapiens, MCF7, 72 h) [nM] |
| --- | --- | --- | --- | --- |
| O=C(c1cn2cc(Br)nc(OC3CCOC3)c2n1)N1CC[C@]2(Cc3ccccc3CN2)[C@H](O)C1 (single isomer, unassigned) [Example 99, (6-bromo-8-(((S or R)(tetrahydrofuran-3-yl)oxy)imidazo[1,2-a]pyrazin-2-yl)((3R,3′R)-3′-hydroxy-1,4-dihydro-2H-spiro[isoquinoline-3,4′-piperidin]-1′-yl)methanone] | 147 | 0.427 | 7.8 |  |
| CC(C#N)c1ccc2nc(C(=O)N3CC[C@]4(Cc5ccccc5CN4)[C@H](O)C3)cn2c1 (stereo partly drawn) [Example 69, 2-(2-{[(3R,3′R)-3′-hydroxy-1,4-dihydro-1′H,2H-spiro[isoquinoline-3,4′-piperidin]-1′-yl]carbonyl}imidazo[1,2-a]pyridin-6-yl)propanenitrile] | 43.6 | 0.405 |  | 12.7 |
| COc1nc2nc(C(=O)N3CC[C@]4(Cc5ccccc5CN4)[C@H](O)C3)cn2cc1C [Example 128, [(3R,3′R)-3′-hydroxy-1,4-dihydro-1′H,2H-spiro[isoquinoline-3,4′-piperidin]-1′-yl](7-methoxy-6-methylimidazo[1,2-a]pyrimidin-2-yl)methanone] | 2690 | 5.33 |  | 195 |
| N#Cc1ccc2nc(C(=O)N3CC[C@]4(Cc5ccccc5CN4)[C@H](O)C3)cn2c1 [Example 36, 2-((3R,3’R)-3′-hydroxy-1,4-dihydro-2H-spiro[isoquinoline-3,4′-piperidine]-1′-carbonyl)imidazo[1,2-a]pyridine-6-carbonitrile] | 2820 | 6.26 |  | 13.2 |
| Cc1nc(Br)cn2cc(C(=O)N3CC[C@]4(Cc5ccccc5CN4)[C@H](O)C3)nc12 [Example 65, (6-bromo-8-methylimidazo[1,2-a]pyrazin-2-yl)[(3R,3′R)-3′-hydroxy-1,4-dihydro-1′H,2H-spiro[isoquinoline-3,4′-piperidin]-1′-yl]methanone] | 1360 | 1.19 |  | 99.1 |
| CO[C@H](C)c1cc(N2CCC(n3ccnc3)C2)cn2cc(C(=O)N3CC[C@]4(Cc5ccccc5CN4)[C@H](O)C3)nc12 (stereo partly drawn) [Example 230, [(3R,3′R)-3′-hydroxy-1,4-dihydro-1′H,2H-spiro[isoquinoline-3,4′-piperidin]-1′-yl]{6-[3-(1H-imidazol-1-yl)-1-pyrrolidinyl]-8-[(1R)-1-methoxyethyl]imidazo[1,2-a]pyridin-2-yl}methanone] |  | 5.38 |  | 124 |
| Cc1cc(-c2onc(C)c2C(=O)N2CC[C@]3(Cc4ccccc4CN3)[C@H](O)C2)no1 [Example 183, (3′,5-dimethyl-[3,5′-biisoxazol]-4′-yl)((3R,3′R)-3′-hydroxy-1,4-dihydro-2H-spiro[isoquinoline-3,4′-piperidin]-1′-yl)methanone] | 7940 | 4.87 |  | 297 |
| CC(C)Oc1nc(Br)cn2cc(C(=O)N3CC[C@]4(Cc5ccccc5CN4)[C@H](O)C3)nc12 [Example 11, {6-bromo-8-[(propan-2-yl)oxy]imidazo[1,2-a]pyrazin-2-yl}((3R,3’R)-3′-hydroxy-1,4-dihydro-1′H,2H-spiro[isoquinoline-3,4′-piperidin]-1′-yl)methanone] | 88.6 | 0.495 |  | 4.2 |
| CCCOc1nc(C)ccc1C(=O)N1CC[C@]2(Cc3ccccc3CN2)[C@H](O)C1 [Example 201, [(3R,3′R)-3′-hydroxy-1,4-dihydro-1′H,2H-spiro[isoquinoline-3,4′-piperidin]-1′-yl](6-methyl-2-propoxy-3-pyridinyl)methanone] | 1020 | 1.36 |  | 168 |
| CC1CC1c1cnc2nc(C(=O)N3CC[C@]4(Cc5ccccc5CN4)[C@H](O)C3)cn2c1 (single isomer, unassigned) [Example 76] | 73.3 | 0.983 | 4.02 |  |

Second part, the molecule after the results:

| EC50 [1, 3] [nM] | EC50 [1, 4] [nM] | EC50 [2] [nM] | EC50 ([2]; Homo sapiens, MCF7, 72 h) [nM] | Compound |
| --- | --- | --- | --- | --- |
| 80000 | 171 | 2860 |  | CC(n1ccc(C(=O)N2CC[C@]3(Cc4ccccc4CN3)[C@H](O)C2)cc1=O)C(F)(F)F (single isomer, unassigned) [Example 103, 4-((3R,3′R)-3′-hydroxy-2,4-dihydro-1H-spiro[isoquinoline-3,4′-piperidin]-1′-ylcarbonyl)-1-((R or S)1,1,1-trifluoropropan-2-yl)pyridin-2(1H)-one] |
| 2540 | 26.3 |  | 711 | O=C(c1cn2ccc(Cl)c(I)c2n1)N1CC[C@]2(Cc3ccccc3CN2)[C@H](O)C1 [Example 216, (7-chloro-8-iodoimidazo[1,2-a]pyridin-2-yl)[(3R,3′R)-3′-hydroxy-1,4-dihydro-1′H,2H-spiro[isoquinoline-3,4′-piperidin]-1′-yl]methanone] |
| 26900 | 24 |  | 1540 | O=C(c1nccn2nccc12)N1CC[C@]2(Cc3ccccc3CN2)[C@H](O)C1 [Example 185, ((3R,3′R)-3′-hydroxy-1,4-dihydro-2H-spiro[isoquinoline-3,4′-piperidin]-1′-yl)(pyrazolo[1,5-a]pyrazin-4-yl)methanone] |
| 385 | 2.56 |  | 50.2 | O=C(c1cnc2ncc(C(F)(F)F)cn12)N1CC[C@]2(Cc3ccccc3CN2)[C@H](O)C1 [Example 168, [(3R,3′R)-3′-hydroxy-1,4-dihydro-1′H,2H-spiro[isoquinoline-3,4′-piperidin]-1′-yl][6-(trifluoromethyl)imidazo[1,2-a]pyrimidin-3-yl]methanone] |
| 422 | 0.669 | 16.9 |  | COC(C)c1cc(Br)c2nc(C(=O)N3CC[C@]4(Cc5ccccc5CN4)[C@H](O)C3)cn2c1 (single isomer, unassigned) [Example 61] |
| 3980 | 20.9 |  | 924 | Cc1cc2ncc(C(=O)N3CC[C@]4(Cc5ccccc5CN4)[C@H](O)C3)c(C)n2n1 [Example 181, (2,7-dimethylpyrazolo[1,5-a]pyrimidin-6-yl)((3R,3′R)-3′-hydroxy-1,4-dihydro-2H-spiro[isoquinoline-3,4′-piperidin]-1′-yl)methanone] |
| 653 | 0.428 |  | 18.4 | O=C(c1cn2cc(C(F)(F)F)cc(CO)c2n1)N1CC[C@]2(Cc3ccccc3CN2)[C@H](O)C1 [Example 29, ((3R,3’R)-3′-hydroxy-1,4-dihydro-1′H,2H-spiro[isoquinoline-3,4′-piperidin]-1′-yl)[8-(hydroxymethyl)-6-(trifluoromethyl)imidazo[1,2-a]pyridin-2-yl]methanone] |
